What is called EC50 is the concentration that produces a half-maximal response.

The text below walks through data of patent US10456400B2, “Aza-ellipticine analogs, methods of synthesis and methods of treatment” (MUSC FOUNDATION FOR RESEARCH DEVELOPMENT, priority 2014, dated 2019).

Read-outs that look alike come from different tables or passages of the source.

The conditions of data set [1]: Ramkumar and Nagarajan, 2014; cited from earlier work.
In data set [2] the test system is Human mammary cancer MCF-7 cells. The experiment in a line: Cytotoxicity in MCF-7 cells (72 h treatment, Hoechst 33342 staining, IN Cell Analyzer imaging). In kind it is cell-based. How it is done:
(§1) Human mammary cancer MCF-7 cells were maintained under standard conditions using Dulbecco's Modified Eagle Medium Nutrient Mixture F12 (DMEM-F12, GIBCO #12400-024) accompanied by 10% fetal calf serum (FCS, Atlanta Biologicals #S 11550). Cells were cultured to 80% confluency before being lifted with 0.05% Trypsin/EDTA (GIBCO #1404912) for 2 minutes, spun and resuspended in new media.
(§2) MCF7 cells were seeded at a density of 10,000 cells per well in 96 well plates (BD Falcon #353220). Cells were grown for 24 h, washed in phosphate-buffered saline (PBS, Life Technologies #14080-055), media was then replaced with DMEM-F12 at 5% FCS. At this time Ellipticine, including Aza-Ellipticine compounds, were added from a treatment plate (3 μL per condition) for a total volume of 150 μL (final concentrations of 0.1, 1, 3, 10 μM) and were incubated under standard conditions for an additional 72 h.
(§3) After 72 h of treatment with drugs, cells were fixed by adding 50 μL of 10% Buffered Formalin Phosphate and stained with 2 μM Hoechst 33342 (AnaSpec #83218) stock (20000×) to media for 1 h. Images were then captured with the IN Cell Analyzer 2000 (GE Healthcare UK Ltd., Buckinghamshire, UK).

Experiment in data set [3]: as above
In kind it is cell-based, Human. The following applies: human. How it is done: as §1, §2, §3

Consider `Cc1c2ccncc2c(C)c2c1[nH]c1ccc(O)cc12` [9-Hydroxy ellipticine, reference compound], for which the “potency compared with parent ellipticine” value in data set [1] is “forty times more potent than its parent”. This compound also registered an EC50 in data set [2] (MCF-7 cells, 72 h treatment, 5% FCS, concentrations 0.1, 1, 3, 10 μM) of 0.9 µM.

As for `c1ccc2c(c1)[nH]c1nc3cnccc3cc12` [Example 2, 10H-indolo[2,3-b][1,7]naphthyridine], a half-maximal response in data set [3] (EC50 at 72 h) required 6 µM.

`COc1ccc2[nH]c3nc4cccnc4c(C)c3c2c1` [Example 7, 9-methoxy-11-methyl-6H-indolo[2,3-b][1,5]naphthyridine] showed an EC50 at 72 h in data set [3] of 14 µM.

With `CCCn1c2ccc(OC)cc2c2cc3ncccc3nc21` [Example 8, 9-methoxy-6-propyl-6H-indolo[2,3-b][1,5]naphthyridine], it took 13.3 µM to reach a half-maximal effect in data set [3] (EC50 at 72 h).

For `COc1ccc2[nH]c3nc4cccnc4cc3c2c1` [Example 12, 9-methoxy-6H-indolo[2,3-b][1,5]naphthyridine], in data set [3], the response was half-maximal at 0.8 µM (EC50 at 72 h).

For the compound `COc1ccc2[nH]c3nc4cnccc4cc3c2c1` [Example 13, 7-methoxy-10H-indolo[2,3-b][1,7]naphthyridine], a half-maximal response in data set [3] (EC50 at 72 h) required 17 µM.

Compound `Oc1ccc2[nH]c3nc4cccnc4cc3c2c1` [Example 14, 6H-indolo[2,3-b][1,5]naphthyridin-9-ol] displayed an EC50 at 72 h in data set [3] of 5 µM.

For `COc1cccc2c1[nH]c1nc3cccnc3cc12` [Example 15, 7-methoxy-6H-indolo[2,3-b][1,5]naphthyridine], the “Cytotoxicity, EC50 (result in words)” value in data set [2] is recorded as “No effect”.

The compound `Cc1ccc2[nH]c3nc4cccnc4cc3c2c1` [Example 17, 9-methyl-6H-indolo[2,3-b][1,5]naphthyridine] returned an EC50 at 72 h in data set [3] of 0.9 µM.

`CCCCc1c2ncccc2nc2[nH]c3ccc(OC)cc3c12` [Example 18, 11-butyl-9-methoxy-6H-indolo[2,3-b][1,5]naphthyridine] showed an EC50 at 72 h in data set [3] of 1 µM.

As to `CC(=O)Oc1ccc2c(c1)c1cc3ncccc3nc1n2C(C)=O` [Example 19, 6-acetyl-6H-indolo[2,3-b][1,5]naphthyridin-9-yl acetate], a half-maximal effect in data set [3] (EC50 at 72 h) was put at 1 µM.

Regarding `Cc1c2ccncc2c(C)c2c1[nH]c1ccccc12` [ellipticine], the EC50 at 72 h in data set [3] (MCF-7 cells, 72 h treatment, 5% FCS, concentrations 0.1, 1, 3, 10 μM, read-out: Cytotoxicity, EC50) was 1 µM.
